PubChem BioAssay AID2060909 (Molecular Pharmacology Branch, DTP, NCI, 2025)
pIC50: −log10 of the molar value. “And” between values parts separate entries of the source, which are not always exact repeats. Equal entries are not always repeated.

Tested on: 362531-283-R-J2-PDC complex spheroid viability
Assay: Anticancer human tumor 362531-283-R-J2-PDC patient-derived colon adenocarcinoma cell line growth inhibition [RAS]
Conditions: for viability, T/C: stronger effect = lower value
How it was run: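 Agents were tested in combination matrices in half-log decrements from a top concentration at or near clinical Cmax (10 microM if undetermined). Targets were multi-cell spheroids of tumour lines plus HUVEC and MSC stromal cells.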

[1] = curve of first compound, second compound 0.000949 µM
[2] = curve of first compound, second compound 0.003 µM
[3] = curve of first compound, second compound 0.00949 µM
[4] = curve of first compound, second compound 0.03 µM
[5] = curve of first compound, second compound 0.0949 µM
[6] = curve of first compound, second compound 0.3 µM
[7] = second compound 0.000949 µM, first compound 0.0316 µM
[8] = second compound 0.000949 µM, first compound 0.1 µM
[9] = second compound 0.000949 µM, first compound 0.316 µM
[10] = second compound 0.000949 µM, first compound 1 µM
[11] = second compound 0.003 µM, first compound 0.0316 µM
[12] = second compound 0.003 µM, first compound 0.1 µM
[13] = second compound 0.003 µM, first compound 0.316 µM
[14] = second compound 0.003 µM, first compound 1 µM
[15] = second compound 0.00949 µM, first compound 0.0316 µM
[16] = second compound 0.00949 µM, first compound 0.1 µM
[17] = second compound 0.00949 µM, first compound 0.316 µM
[18] = second compound 0.00949 µM, first compound 1 µM
[19] = second compound 0.03 µM, first compound 0.0316 µM
[20] = second compound 0.03 µM, first compound 0.1 µM
[21] = second compound 0.03 µM, first compound 0.316 µM
[22] = second compound 0.03 µM, first compound 1 µM
[23] = second compound 0.0949 µM, first compound 0.0316 µM
[24] = second compound 0.0949 µM, first compound 0.1 µM
[25] = second compound 0.0949 µM, first compound 0.316 µM
[26] = second compound 0.0949 µM, first compound 1 µM
[27] = second compound 0.3 µM, first compound 0.0316 µM
[28] = second compound 0.3 µM, first compound 0.1 µM
[29] = second compound 0.3 µM, first compound 0.316 µM
[30] = second compound 0.3 µM, first compound 1 µM
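Further: spheroids exposed to the agents for 7 days before readout.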
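Wherever viability, T/C is given: luminescence viability as percent of DMSO vehicle control wells.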

Nc1ccn(C2OC(CO)C(O)C2(F)F)c(=O)n1 (stereo unspecified) + CCn1c(-c2cc(N3CCN(C)CC3)cnc2C(C)OC)c2c3cc(ccc31)-c1csc(n1)CC(NC(=O)C1CC1C)C(=O)N1CCCC(N1)C(=O)OCC(C)(C)C2 was tested, and the pIC50 [1] was 6.74, the pIC50 [2] was 6.75 and the pIC50 [3] was 6.89. For the same molecule, the pIC50 [4] was 6.85, the pIC50 [5] was 7.10 and the pIC50 [6] was greater than 8.50. For the same molecule, the viability, T/C (second compound 0.000949 µM, first compound 0.00316 µM) was 98.9%, the viability, T/C (second compound 0.000949 µM, first compound 0.01 µM) was 108% and the viability, T/C [7] was 80.5%. For the same molecule, the viability, T/C [8] was 75.7%, the viability, T/C [9] was 23.7% and the viability, T/C [10] was 27.7%. For the same molecule, the viability, T/C (second compound 0.003 µM, first compound 0.00316 µM) was 110%, the viability, T/C (second compound 0.003 µM, first compound 0.01 µM) was 91% and the viability, T/C [11] was 82%. It also gave a viability, T/C [12] of 75.7%, a viability, T/C [13] of 18.9% and a viability, T/C [14] of 29.3%. For the same molecule, the viability, T/C (second compound 0.00949 µM, first compound 0.00316 µM) was 95%, the viability, T/C (second compound 0.00949 µM, first compound 0.01 µM) was 101% and the viability, T/C [15] was 66.7%. It also gave a viability, T/C [16] of 69.5%, a viability, T/C [17] of 17.6% and a viability, T/C [18] of 24.9%. For the same molecule, the viability, T/C (second compound 0.03 µM, first compound 0.00316 µM) was 97.9%, the viability, T/C (second compound 0.03 µM, first compound 0.01 µM) was 86.8% and the viability, T/C [19] was 75.5%. The viability, T/C [20] was 63.6%, the viability, T/C [21] was 15.3% and the viability, T/C [22] was 21.6%. The viability, T/C (second compound 0.0949 µM, first compound 0.00316 µM) was 80.2%, the viability, T/C (second compound 0.0949 µM, first compound 0.01 µM) was 80% and the viability, T/C [23] was 64.4%. It also gave a viability, T/C [24] of 49.9%, a viability, T/C [25] of 10.8% and a viability, T/C [26] of 17.4%. It also gave a viability, T/C (second compound 0.3 µM, first compound 0.00316 µM) of 40.9%, a viability, T/C (second compound 0.3 µM, first compound 0.01 µM) of 46.2% and a viability, T/C [27] of 28.5%. It also gave a viability, T/C [28] of 25.1%, a viability, T/C [29] of 14.6% and a viability, T/C [30] of 10.3%.
With C[C@@H](NC(=O)c1ncnc(N)c1Cl)c1ncc(C(=O)Nc2cc(C(F)(F)F)c(Cl)cn2)s1 + C#Cc1c(F)ccc2cc(O)cc(-c3ncc4c(N5CC6CCC(C5)N6)nc(OCC56CCCN5CC(F)C6)nc4c3F)c12 the pIC50 (curve of first compound, second compound 0.0316 µM) was less than 5.00, the pIC50 (curve of first compound, second compound 0.1 µM) was less than 5.00 and the pIC50 (curve of first compound, second compound 0.316 µM) was less than 5.00. For the same molecule, the pIC50 (curve of first compound, second compound 1 µM) was less than 5.00, the pIC50 (curve of first compound, second compound 3.16 µM) was 5.06 and the pIC50 (curve of first compound, second compound 10 µM) was 5.44. For the same molecule, the viability, T/C (second compound 0.0316 µM, first compound 0.0316 µM) was 92.9%, the viability, T/C (second compound 0.0316 µM, first compound 0.1 µM) was 111% and the viability, T/C (second compound 0.0316 µM, first compound 0.316 µM) was 111%. For the same molecule, the viability, T/C (second compound 0.0316 µM, first compound 1 µM) was 97%, the viability, T/C (second compound 0.0316 µM, first compound 3.16 µM) was 92.4% and the viability, T/C (second compound 0.0316 µM, first compound 10 µM) was 70.5%. For the same molecule, the viability, T/C (second compound 0.1 µM, first compound 0.0316 µM) was 104%, the viability, T/C (second compound 0.1 µM, first compound 0.1 µM) was 97.1% and the viability, T/C (second compound 0.1 µM, first compound 0.316 µM) was 94.8%. For the same molecule, the viability, T/C (second compound 0.1 µM, first compound 1 µM) was 95.3%, the viability, T/C (second compound 0.1 µM, first compound 3.16 µM) was 93.6% and the viability, T/C (second compound 0.1 µM, first compound 10 µM) was 66.1%. The viability, T/C (second compound 0.316 µM, first compound 0.0316 µM) was 94.2%, the viability, T/C (second compound 0.316 µM, first compound 0.1 µM) was 96.9% and the viability, T/C (second compound 0.316 µM, first compound 0.316 µM) was 93.4%. It also gave a viability, T/C (second compound 0.316 µM, first compound 1 µM) of 94.4%, a viability, T/C (second compound 0.316 µM, first compound 3.16 µM) of 91.6% and a viability, T/C (second compound 0.316 µM, first compound 10 µM) of 60.7%. It also gave a viability, T/C (second compound 1 µM, first compound 0.0316 µM) of 94.3%, a viability, T/C (second compound 1 µM, first compound 0.1 µM) of 84.8% and a viability, T/C (second compound 1 µM, first compound 0.316 µM) of 99.3%. For the same molecule, the viability, T/C (second compound 1 µM, first compound 1 µM) was 87%, the viability, T/C (second compound 1 µM, first compound 3.16 µM) was 92.8% and the viability, T/C (second compound 1 µM, first compound 10 µM) was 52.5%. The viability, T/C (second compound 3.16 µM, first compound 0.0316 µM) was 78.6%, the viability, T/C (second compound 3.16 µM, first compound 0.1 µM) was 80.3% and the viability, T/C (second compound 3.16 µM, first compound 0.316 µM) was 79.2%. The viability, T/C (second compound 3.16 µM, first compound 1 µM) was 74.1%, the viability, T/C (second compound 3.16 µM, first compound 3.16 µM) was 69.8% and the viability, T/C (second compound 3.16 µM, first compound 10 µM) was 47.2%. For the same molecule, the viability, T/C (second compound 10 µM, first compound 0.0316 µM) was 63%, the viability, T/C (second compound 10 µM, first compound 0.1 µM) was 75.4% and the viability, T/C (second compound 10 µM, first compound 0.316 µM) was 71.7%. For the same molecule, the viability, T/C (second compound 10 µM, first compound 1 µM) was 60.6%, the viability, T/C (second compound 10 µM, first compound 3.16 µM) was 53.4% and the viability, T/C (second compound 10 µM, first compound 10 µM) was 31.6%.
NC1c2ccccc2OC12CCN(c1cnc3c(N4CCCc5ncccc54)n[nH]c3n1)CC2 (stereo unspecified) + CCn1c(-c2cccnc2C(C)OC)c2c3cc(ccc31)N1CCOC(CC(NC(=O)C(C(C)C)N(C)C(=O)C3(F)CCN(C(=O)C#CC(C)(C)N(C)C)CC3)C(=O)N3CCCC(N3)C(=O)OCC(C)(C)C2)C1 was tested, and the pIC50 [1] was 5.26, the pIC50 [2] was less than 5.00 and the pIC50 [3] was 5.12. For the same molecule, the pIC50 [4] was 5.17, the pIC50 [5] was 5.23 and the pIC50 [6] was less than 5.00. The viability, T/C [7] was 91.7%, the viability, T/C [8] was 86.7% and the viability, T/C [9] was 76.7%. For the same molecule, the viability, T/C [10] was 72.8%, the viability, T/C (second compound 0.000949 µM, first compound 3.16 µM) was 54.8% and the viability, T/C (second compound 0.000949 µM, first compound 10 µM) was 43%. The viability, T/C [11] was 94.8%, the viability, T/C [12] was 87.5% and the viability, T/C [13] was 75%. The viability, T/C [14] was 66.8%, the viability, T/C (second compound 0.003 µM, first compound 3.16 µM) was 63.3% and the viability, T/C (second compound 0.003 µM, first compound 10 µM) was 52%. The viability, T/C [15] was 86.6%, the viability, T/C [16] was 88.5% and the viability, T/C [17] was 71.3%. It also gave a viability, T/C [18] of 80.3%, a viability, T/C (second compound 0.00949 µM, first compound 3.16 µM) of 69.9% and a viability, T/C (second compound 0.00949 µM, first compound 10 µM) of 43.2%. It also gave a viability, T/C [19] of 95.8%, a viability, T/C [20] of 74.2% and a viability, T/C [21] of 77.4%. For the same molecule, the viability, T/C [22] was 76.4%, the viability, T/C (second compound 0.03 µM, first compound 3.16 µM) was 65.6% and the viability, T/C (second compound 0.03 µM, first compound 10 µM) was 41.3%. It also gave a viability, T/C [23] of 95.3%, a viability, T/C [24] of 85.2% and a viability, T/C [25] of 79%. It also gave a viability, T/C [26] of 74.3%, a viability, T/C (second compound 0.0949 µM, first compound 3.16 µM) of 56.4% and a viability, T/C (second compound 0.0949 µM, first compound 10 µM) of 42.8%. The viability, T/C [27] was 87.8%, the viability, T/C [28] was 75.6% and the viability, T/C [29] was 76.9%. The viability, T/C [30] was 67.4%, the viability, T/C (second compound 0.3 µM, first compound 3.16 µM) was 57.7% and the viability, T/C (second compound 0.3 µM, first compound 10 µM) was 53.1%.
In the case of CC1(O)CCCC1n1c(=O)c(C(F)F)cc2cnc(NC3CCN(S(C)(=O)=O)CC3)nc21 (stereo unspecified), the viability, T/C (compound 0.0316 µM) was 103% (2×) and 94% and 97.4%, the viability, T/C (compound 0.1 µM) was 104% [middle of 4 runs] and the viability, T/C (compound 0.316 µM) was 89.9% [middle of 4 runs]. The viability, T/C (compound 3.16 µM) was 68.3% [middle of 4 runs] and the pIC50 (curve of compound) was < 5.00 and 5.03 and 5.22.
